From patent US20230181556A1, “USE OF PSYCHOTROPIC DRUGS FOR THE TREATMENT OF CORONAVIRUS INFECTIONS” (priority 2020, published 2023)

Test system: SARS-CoV-2 clinical isolates D614G
Type: cell-based

Row | Compound | IC50
1 | CN1CCCC(n2nc(Cc3ccc(Cl)cc3)c3ccccc3c2=O)CC1 (centres unmarked) [Azelastine] | 5.75 µM
2 | CC(CN1c2ccccc2Sc2ccccc21)N(C)C (centres unmarked) [Promethazine] | 9.22 µM
